Test: MTT assay of viability and metabolic activity of ex vivo human skin explants after topical application
Type: cell-based
Settings: ex vivo human skin explants (5 mm); ex vivo human skin 5 mm explants, 48 hours post treatment, 37° C., compared to the untreated skin control, n=3
Procedure: Sample 1 was tested to determine its toxicity and metabolic properties in comparison to a control and three commercial cleaning agents (irritants)— “SDS” (sodium dodecyl sulfate), Triton™ X-100, and Tween® 20. Human skin was obtained via post-surgical elective surgery under IRB protocol and prepared within 2 hours of surgery as 5 mm explants. The compositions were applied to the surface of the epidermis and incubated for 24 hours and 48 hours at 37° C. At each time point, explants were assessed for viability and metabolic activity via a MTT assay (n=3; mean+/−SEM), a colorimetric assay for assessing cell metabolic activity. […] The metabolic activity (viability) of tissues treated with Sample 1 remained above 50% at 48 hours post treatment compared to the untreated skin control, while those treated with Trition ° X-100 and SDS were <10% and are illustrated in the graph below that plots percent viability and time.

SMILES: CCCCCCCCCCCCOS(=O)(=O)[O-].[Na+] [SDS, sodium dodecyl sulfate]
- viability at 48 h: < 10%
